Where two headings read alike, the source gives them in different places.
What was measured:
Assay in all cases: biochemical
MMP-1 = biological target: T1, MMP-1 (Homo sapiens, UniProt P03956); settings: read-out: MMP-1 IC50
T1 construct: made in house; host or cells: transfected HT-1080 cells (provided by Dr. Harold Welgus, Washington University)
T1 sequence (P03956 100-469): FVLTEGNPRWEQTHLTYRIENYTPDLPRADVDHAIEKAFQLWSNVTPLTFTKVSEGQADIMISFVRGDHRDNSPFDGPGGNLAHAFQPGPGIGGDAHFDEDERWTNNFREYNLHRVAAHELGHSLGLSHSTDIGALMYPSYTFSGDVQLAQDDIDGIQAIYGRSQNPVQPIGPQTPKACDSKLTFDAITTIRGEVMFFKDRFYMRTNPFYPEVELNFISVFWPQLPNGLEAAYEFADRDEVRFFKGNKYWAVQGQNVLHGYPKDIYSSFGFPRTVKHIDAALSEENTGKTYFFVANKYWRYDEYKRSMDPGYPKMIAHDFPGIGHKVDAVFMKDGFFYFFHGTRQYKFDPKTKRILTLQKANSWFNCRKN
Method in brief: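 APMA- or trypsin-activated human MMPs (MMP-1 from transfected HT-1080 cells, MMP-2 from transfected cells) preincubated with inhibitor in 1% DMSO at room temperature, then 4 μM MCA-Pro-Leu-Gly-Leu-Dpa-Ala-Arg-NH2 added in Tris/NaCl/CaCl2 buffer pH 7.5. IC50 from fluorescence reduction versus inhibitor concentration.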

MMP-13 = biological target: T2, MMP-13 (Homo sapiens, UniProt P45452); settings: read-out: MMP-13 IC50
T2 construct: made in house; host or cells: baculovirus / insect cells
Method in brief: (§1)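 APMA- or trypsin-activated enzymes were preincubated with inhibitor for 5 min at room temperature, then the fluorogenic substrate MCA-Pro-Leu-Gly-Leu-Dpa-Ala-Arg-NH2 was added to a final 4 μM.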

MMP-2 = biological target: T3, MMP-2 (Homo sapiens, UniProt P08253)
T3 construct: made in house; provided by Dr. Gregory Goldberg, Washington University
T3 sequence (P08253 110-660): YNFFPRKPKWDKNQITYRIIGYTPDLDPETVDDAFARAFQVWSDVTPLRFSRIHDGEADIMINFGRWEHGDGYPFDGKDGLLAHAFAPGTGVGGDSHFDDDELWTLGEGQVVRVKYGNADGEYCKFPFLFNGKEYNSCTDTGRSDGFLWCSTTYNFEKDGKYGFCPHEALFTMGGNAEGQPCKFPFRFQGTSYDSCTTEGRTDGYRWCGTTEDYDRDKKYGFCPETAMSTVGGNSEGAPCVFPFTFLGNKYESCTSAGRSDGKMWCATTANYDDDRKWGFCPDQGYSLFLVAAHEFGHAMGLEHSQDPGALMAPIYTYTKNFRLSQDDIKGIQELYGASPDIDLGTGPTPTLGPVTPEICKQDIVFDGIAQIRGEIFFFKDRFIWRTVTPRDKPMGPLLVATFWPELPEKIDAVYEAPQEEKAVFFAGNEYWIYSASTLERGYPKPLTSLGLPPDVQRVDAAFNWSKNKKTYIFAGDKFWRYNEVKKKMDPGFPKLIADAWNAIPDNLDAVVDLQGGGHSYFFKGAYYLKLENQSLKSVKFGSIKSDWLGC
Method in brief: as §1

[1] = recombinant human MMP-1, MCA peptide substrate 4 μM, pH 7.5, room temperature
[2] = recombinant human MMP-13, MCA peptide substrate 4 μM, pH 7.5, room temperature
[3] = recombinant human MMP-2, MCA peptide substrate 4 μM, pH 7.5, room temperature, read-out: MMP-2 IC50

SMILES | IC50 (MMP-1; [1]) [nM] | IC50 (MMP-13; [2]) [nM] | IC50 (MMP-2; [3]) [nM] | IC50 (MMP-1) [nM] | IC50 (MMP-13) [nM] | IC50 (MMP-2; read-out: MMP-2 IC50) [nM] | IC50 (MMP-2; MMP-2 IC50 (nM)) [nM]
O=C(NO)C1(S(=O)(=O)c2ccc(N3CCN(S(=O)(=O)c4cccc(C(F)(F)F)c4)CC3)cc2)CCOCC1 [Example 676] | > 10000 | 7.7 | 90 | – | – | – | –
O=C(CNCc1ccncc1)N1CCC(C(=O)NO)(S(=O)(=O)c2ccc(Oc3ccc(C(F)(F)F)cc3)cc2)CC1 [Example 325] | > 10000 | 0.9 | 0.2 | – | – | – | –
CN(CC1CC1)C(=O)C1CCN(c2ccc(S(=O)(=O)C3(C(=O)NO)CCSCC3)cc2)CC1 [Example 154] | > 10000 | 18 | 3700 | – | – | – | –
O=C(NO)C1(S(=O)(=O)c2ccc(N3CCC(OCc4ccc(COCCF)cc4)CC3)cc2)CCOCC1 [Example 606] | > 10000 | 3 | 77 | – | – | – | –
Cc1cccc(COC2CCC(Oc3ccc(S(=O)(=O)C4(C(=O)NO)CCOCC4)cc3)C2)c1 (stereo not drawn) [Example 706] | > 10000 | 4.3 | 40 | – | – | – | –
CCOC1CCN(c2ccc(S(=O)(=O)C3(C(=O)NO)CCOCC3)cc2)CC1 [Example 166] | > 10000 | 32.7 | 240 | – | – | – | –
CCOc1ccc(NC(=O)OC2CCN(c3ccc(S(=O)(=O)C4(C(=O)NO)CCOCC4)cc3)CC2)cc1 [Example 190] | > 10000 | 4.7 | 136 | – | – | – | –
O=C(CCCCN1CCCCC1)N1CCC(C(=O)NO)(S(=O)(=O)c2ccc(Oc3ccc(C(F)(F)F)cc3)cc2)CC1 [Example 334] | > 10000 | 0.7 | 0.3 | – | – | – | –
O=C(NO)C1(S(=O)(=O)c2ccc(N3CCC(OCc4ccccc4Cl)CC3)cc2)CCOCC1 [Example 574] | > 10000 | 10.6 | 220 | – | – | – | –
O=C(Nc1c(Cl)cccc1Cl)N1CCC(C(=O)NO)(S(=O)(=O)c2ccc(Oc3ccc(OC(F)(F)F)cc3)cc2)CC1 [Example 355] | 7000 | 0.4 | < 0.1 | – | – | – | –
O=C(c1ccc(F)cc1)C1CCN(c2ccc(S(=O)(=O)C3(C(=O)NO)CCSCC3)cc2)CC1 [Example 152] | – | – | – | > 10000 | 2 | 59 | –
O=C(Nc1ccc(C(F)(F)F)cc1)N1CCC(C(=O)NO)(S(=O)(=O)c2ccc(Oc3ccc(C(F)(F)F)cc3)cc2)CC1 [Example 141] | > 10000 | 20 | 9 | – | – | – | –
CC1CC(C)CN(C(=O)C2CCN(c3ccc(S(=O)(=O)C4(C(=O)NO)CCN(C(=O)Cn5cncn5)CC4)cc3)CC2)C1 (stereo not drawn) [Example 311] | > 10000 | 120 | > 10000 | – | – | – | –
O=C(c1ccco1)N1CCC(C(=O)NO)(S(=O)(=O)c2ccc(N3CCC(OCc4ccc(Cl)cc4)CC3)cc2)CC1 [Example 432] | > 10000 | 13.9 | 100 | – | – | – | –
O=C(NO)C1(S(=O)(=O)c2ccc(N3CCN(c4ccccc4F)CC3)cc2)CCOCC1 [Example 83] | 3100 | 2.7 | – | – | – | – | 21.1
O=C(NO)C1(S(=O)(=O)c2ccc(N3CCC(n4c(=O)[nH]c5ccccc54)CC3)cc2)CCOCC1 [Example 211] | – | 11.4 | 1200 | > 10000 | – | – | –
O=C(NO)C1(S(=O)(=O)c2ccc(N3CCC(Oc4ccc(C(F)(F)F)cc4)CC3)cc2)CCOCC1 [Example 567] | > 10000 | 5 | 87.7 | – | – | – | –
O=C(NO)C1(S(=O)(=O)c2ccc(N3CCC(CCOCc4ccccc4)CC3)cc2)CCOCC1 [Example 499] | > 10000 | 0.9 | 19.3 | – | – | – | –
COc1ccc(NC(=O)C2CCN(c3ccc(S(=O)(=O)C4(C(=O)NO)CCOCC4)cc3)CC2)cc1 [Example 76] | > 10000 | 9 | 250 | – | – | – | –

Reference: patent publication US6750228B1, “Aromatic sulfone hydroxamic acid metalloprotease inhibitor” (priority 1997, dated 2004)
